Where two headings read alike, the source gives them in different places.

We go through ten compounds from article PMC9147645, “Food-Derived β-Carboline Alkaloids Ameliorate Lipid Droplet Accumulation in Human Hepatocytes” (Pharmaceuticals, 2022).

For series [1], the system named is HepG2 cells. In words: Cytotoxicity / lipocytotoxicity assay (CCK-8). Format: cell-based. To be noted: 0.25 mM oleic acid, 24 h, HepG2. As for the experimental part: (§1) HepG2 cells were purchased from the American Type Culture Collection (ATCC) (Manassas, VA, USA). High-glucose DMEM containing 10% heat-inactivated FBS and 1% penicillin–streptomycin was maintained under a humidified atmosphere at 37 °C with 5% CO2, as indicated in the Supplementary Materials. HepG2 cells (1.5 × 10^4/well) in DMEM supplemented with 10% FBS were seeded into a 96-well plate. A cytotoxicity assay was performed according to the manufacturer’s protocol using CCK-8 (Dojindo Molecular Technologies), as indicated in the Supplementary Materials (Materials and Methods). […]
(§2) 2 1.2. Cytotoxicity assay […] HepG2 cells (1.5 × 10^4/well) in DMEM supplemented with 10% FBS were under reduced pressure, and H2O (25 ml) was added. Then the solution was seeded into a 96-well plate. The cytotoxicity assay was done using CCK-8 extracted with AcOEt after adjusted to 9–10 with aq. NaOH solution. The organic (Dojindo Molecular Technologies) according to the manufacturer's protocol. […]
(§3) Compounds 1 and 3. To a stirred soln. Compound 10 (218 mg, 1.00 mmol), 5- Technologies, Rockville, USA) according to the manufacturer ’sinstructions. Cell Acetoxymethylfurfural (1, 168 mg, 1.00 mmol) and Nano CuO (7.955 mg, 0.1 suspension (100 μl/well) was inoculated in a 96-well plate (Iwaki, Japan), and mmol) were added 6 ml of DMF. The mixture was stirred at 90℃ for 16 h. The pH once monolayers were observed, treatments were added (n = 3 per each of the aqueous solution was adjusted to 9–10 with aq NaOH solution after adding treatment). Cells were then pre-incubated with the treatments for 24 h before H O. After extracting the solution with AcOEt, the organic layer was washed with assay to determine cell viability.Absorbance was measured at 450 nm using a 2 plate reader (PerkinElmer-ARVO-MX-ID 10533234, Japan). […]
(§4) [5-(hydroxymethyl)-2-furanyl]-1H-pyrido[3,4-b]indole-3-carboxylic acid (2, CAS culture medium was removed from each dish, and cells were washed Registry Number 896466-77-6); flazine methyl ester acetate (3, CAS Registry and rinsed with 1× PBS. Cells were then fixed for 20 min in 10% formalin and Number 104537-95-3); flazin (4, CAS Registry Number 100041-05-2); washed twice using PBS. Then, Oil Red O dye was added to the dishes and incubated for 20 min. Finally, the dye was removed from each dish and cells 5

The subject of series [2] is HepG2 cells. Description: Lipid droplet accumulation inhibition (LDAI) assay, Oil Red O, oleic acid-loaded cells. The class given is cell-based, human. The settings on record: for Induction of LDs: HepG2. As for the experimental part: LDAI assay: LDAI activity was determined using an Oil Red O assay with 24-well plates (n = 4 per treatment). Staining of LDs in cultured hepatocytes was performed according to the manufacturer’s instructions, based on the Oil Red O staining assay. Briefly, HepG2 cells (1.5 × 10^4/well) were supplemented with 10% FBS, cultured, seeded in 35-mm dishes, and treated with the tested samples after 24 h. Oil Red O, a fat-soluble dye, is widely used for staining neutral lipids in LDs, as described in the Supplementary Materials. […]
2 1.2. Cytotoxicity assay dropwise under ice-cooling. […]
Lipid droplet accumulation inhibition assay and Real-Ti me LDAI acid tryptophan (9) and compound 12 were subjected to acid conversion at 90 °C accumulation in acetic acid to obtain compound 2 (1H and 13C, see in Supporting Information). Lipid droplet accumulation inhibition (LDAI) activity was determined using an Synthesis of Compound 4. To a stirred soln . compound 3 in MeOH was added oilred assay in a 24-well plate according to the manufacturer ’sinstructions (n = 4 with NaOH (2 mol/L). Compound 4 was obtained after stirringthe mixture at 65℃ per each treatment). Real-time oleic induced-LD inhibition was performed by for 5 h. (1H and 13C, see Figures S10 and S11). We also prepared similar using a Nikkon microscope. Morphological analysis of HepG2 cells after compounds without any substituent at the C-1 position in the C-ring using a one- treatment with control(-OA) and (+OA) or compound at different concentrations pot Pictet–Spengler reaction (6-8). was determined by staining with AO/EB.
Synthetic b-carboline alkaloids (1-8): 1.4. Oil Red O Staining.
CAS Registry Number of all the series of synthetic b-carboline alkaloids (1-8) HepG2 cells were cultured and treated in 35 mm dishes, as described above. were subjected to biological evaluation: 1H-Pyrido[3,4-b]indole-3-carboxylic acid, Oil Red O dye was used for LD staining. Oil Red O was dissolved in isopropanol 1-[5-[(acetyloxy)methyl]-2-furanyl]-2,3,4,9-tetrahydro-, methyl ester, (1S-trans)- as 3 mg/mL and diluted with water so that isopropanol became 60%. Oil Red O (9CI) (1,CAS Registry Number 11 5 1 0 7-75-0;11 5 1 0 7-76-1);2,3,4,9-Tetrahydro-1-solutionwasfilteredbya0.4 μm pore syringe filter.For cellular staining, the […]

Series [3] has as its system nuclear factor erythroid 2-related factor 2 (Nrf2). To be noted: hepatocytes; cited from earlier work.
The nature of series [4]: Cytotoxicity / lipocytotoxicity assay (CCK-8). To be noted: human; for IC50 at 24 h: HepG2, values given in the text, read-out: IC50 (cytotoxicity, cell viability). The class given is cell-based. As for the experimental part: as §1, §2, §3, §4
The subject of series [5] is HepG2 cells. The settings on record: 100 μM; cited from earlier work.
Another series concerns human HepG2. Set-up: method as in PMID 30103390. To be noted: human HepG2, 180 μM; cited from earlier work.
Setting [6] is: HepG2 cells, HepG2, DMEM loaded with fatty acid (+OA), read-out: Lipocytotoxicity (LC50), concentration at which 50% of cells died.
[7] abbreviates: HepG2 cells, HepG2, DMEM without fatty acid (−OA), read-out: Cytotoxicity (CC50), concentration at which 50% of cells died.
[8] abbreviates: Homo sapiens, HepG2, 24 h, HepG2 + 0.25 mM oleic acid, vs untreated control (+OA).

For `CCCCCCCC/C=C\CCCCCCCC(=O)O` [oleic acid, reference compound], the “Cell viability after oleic acid treatment (in words)” value in the series with HepG2 cells [1] is reported as “no cytotoxicity”. For the same compound, the “Induction of LDs” value in the series with HepG2 cells [2] (0.25 mM oleic acid, 24 h) is on record as 2.6 fold; in the series with HepG2 cells [2] (0.5 mM oleic acid, 24 h), 2.8 fold.
For the compound `COc1c(O)cc(CO)cc1O` [DHMBA, 3,5-dihydroxy-4-methoxybenzyl alcohol, reference compound], the Nrf2-dependent antioxidant action result in series [3] is recorded as “Nrf2-dependent antioxidant action”.
For the compound `O=C(O)c1cc2c(cn1)[nH]c1ccccc12` [Compound 8, β-Carboline-3-carboxylic acid], the figures for the CC50 at 24 h in series [4] (setting [6]) and in series [4] (setting [7]) were 530 µM and 549 µM, respectively. In addition, the inhibition (in general, the drop in the measured response relative to a control, in per cent) at 400 µM in the series on HepG2 cells [2] (setting [8]) turned out to be 81.8%.
Turning to `O=C(O)C1Cc2c([nH]c3ccccc23)CN1` (stereo not drawn) [Compound 6, 1,2,3,4-Tetrahydro-β-carboline-3-carboxylic acid], the CC50 at 24 h was 520 µM in series [4] (setting [6]) and 505 µM in series [4] (setting [7]).
For the compound `O=c1c(-c2ccc(O)cc2)coc2c([C@@H]3O[C@H](CO)[C@@H](O)[C@H](O)[C@H]3O)c(O)ccc12` [Puerarin], the Hepatic steatosis result with HepG2 cells [5] is on record as “ameliorates hepatic steatosis”.
In the case of `COC(=O)C1Cc2c([nH]c3ccccc23)CN1` (stereo not drawn) [Compound 5, methyl 1,2,3,4-tetrahydro-β-carboline-3-carboxylate], the CC50 at 24 h worked out at 488 µM in series [4] (setting [6]) and 397 µM in series [4] (setting [7]). The inhibition at 400 µM in the series on HepG2 cells [2] (setting [8]) was 42%.
For `Oc1cc(O)c2cc(O)c(-c3cc(O)c(O)c(O)c3)[o+]c2c1` [Delphinidin], the Hepatic triglyceride accumulation result with human HepG2 is given as “ameliorated hepatic triglyceride accumulation”.
On to `COC(=O)c1cc2c(cn1)[nH]c1ccccc12` [Compound 7, methyl β-carboline-3-carboxylate], for which the CC50 at 24 h in series [4] (HepG2, DMEM loaded with fatty acid (+OA), read-out: Lipocytotoxicity (LC50), concentration at which 50% of cells died) was 498 µM; in series [4] (HepG2, DMEM without fatty acid (−OA), read-out: Cytotoxicity (CC50), concentration at which 50% of cells died), 390 µM. Further, in the series with HepG2 cells [2] (Homo sapiens, 24 h, HepG2 + 0.25 mM oleic acid, vs untreated control (+OA)), the inhibition at 400 µM was determined as 25.4%.
`COC(=O)c1cc2c([nH]c3ccccc32)c(-c2ccc(COC(C)=O)o2)n1` [Compound 3, flazin methyl ester acetate]: the CC50 at 24 h in series [4] (setting [6]) was found to be 131 µM; in series [4] (setting [7]), 66.8 µM. The IC50 – broadly, the point on the concentration scale where inhibition reaches its midpoint – at 24 h in series [4] (HepG2 cells) was determined as 66.9 µM. In addition, the inhibition at 50 µM with HepG2 cells [2] (Homo sapiens, HepG2, 24 h, 50 μM, HepG2 + 0.25 mM oleic acid, vs untreated control (+OA)) was 26%.
Take `COC(=O)[C@@H]1Cc2c([nH]c3ccccc23)C(c2ccc(COC(C)=O)o2)N1` (stereo partly shown) [Compound 1, Methyl 1,2,3,4-Tetrahydro-1-(5-[(acetyloxy)methyl]-2-furanyl)-9H-pyrido [3,4-b]indole-3-carboxylic acid]: the CC50 at 24 h was determined as 442 µM in series [4] (setting [6]) and 488 µM in series [4] (setting [7]). For the same compound, the 50% inhibitory concentration (IC50) at 24 h in series [4] (HepG2 cells) turned out to be 488 µM. In the series on HepG2 cells [2] (setting [8]), the inhibition at 400 µM came to 63.2%.
